Assay results from paper PMC8143291, “Cytotoxicity and Microbicidal Activity of Commonly Used Organic Solvents: A Comparative Study and Application to a Standardized Extract from Vaccinium macrocarpon” (Toxics, 2021).
Where “and” joins values, the source holds several entries; their conditions need not be identical. Equal values may be shown once.

Assays:
S. Aureus ATCC 29213 [1] = assay: Broth microdilution MIC/MBC; type: cell-based, Staphylococcus aureus; conditions: 24 h exposure; v/v; n = 3
Description: (§1) The bacterial strains used for AST of the solvents included: Staphylococcus aureus (ATCC 29213), Staphylococcus aureus—MRSA (NBIMCC 8327—resistant to methicillin and oxacillin, National Bulgarian Collection for Industrial Microorganisms and Cell Cultures, Sofia, Bulgaria), Streptococcus pyogenes (SAIMC 10535, Collection of the Stephan Angeloff Institute of Microbiology, Sofia, Bulgaria), Enterococcus faecalis (ATCC 29212), Escherichia coli (ATCC 35218), Pseudomonas aeruginosa (ATCC 27853), and Yersinia enterocolitica (IP864 O:3, Collection of Institut Pasteur, Paris, France). The selected strains are the most often investigated ones in the AST research studies in correspondence with the standard ISO 20776-1 Part 1: Reference method for testing the in vitro activity of antimicrobial agents against rapidly growing aerobic bacteria involved in infectious diseases. The antimycotic activity was tested on Candida albicans (CBS 562, Utrecht, The Netherlands). The strains S. aureus, MRSA, E. coli and E. faecalis were grown on Mueller–Hinton broth/agar (MHB/MHA); S. pyogenes, P. aeruginosa, Y. enterocolitica and C. albicans were grown on brain heart infusion (BHI) broth/agar; E. coli was also grown on Luria–Bertani broth/agar (LBB/LBA).
(§2) The minimum inhibitory concentration (MIC) for each solvent was estimated by the broth microdilution method (BMD) in 96-well microplates, following ISO 20776/1-2006 [3] and CLSI protocols. Briefly, a standardized bacterial inoculum was prepared from each bacterial species by suspending 3–4 colonies from a pure culture into 4 mL sterile saline. The turbidity of the inocula was adjusted to McFarland 0.5 (1.0 × 10^8 CFU/mL, λ = 600 nm), and 50 µL were resuspended in 10 mL of the appropriate culture medium for each strain. The bacterial inocula were added to microtiter trays containing equivalent volumes of medium loaded with the relevant solvent in concentrations varying from 0.025 to 25% volume fraction. The final volume of each sample was 100 µL/well. The plates were incubated at 37 °C for 24 h. The pure culture medium served as a negative control. Every MIC was evaluated visually as the lowest concentration without visible growth. […] MBC was defined as the lowest compound’s concentration reducing the colony growth of the initial bacterial inoculum by ≥ 99.9%.

[2] = tested on: S. Aureus MRSA NBIMCC 8327; assay: Broth microdilution MIC/MBC; type: cell-based, Staphylococcus aureus; conditions: 24 h exposure; v/v; n = 3
Description: as §1, §2

S. pyogenes SAIMC 10535 [3] = assay: Broth microdilution MIC/MBC; type: cell-based, Streptococcus pyogenes; conditions: 24 h exposure; v/v; n = 3
Description: as §1, §2

E. faecalis ATCC 29212 [4] = assay: Broth microdilution MIC/MBC; type: cell-based, Enterococcus faecalis; conditions: 24 h exposure; v/v; n = 3
Description: as §1, §2

E. coli ATCC 35218 [5] = assay: Broth microdilution MIC/MBC; type: cell-based, Escherichia coli; conditions: 24 h exposure, v/v, n = 3
Description: as §1, §2

P. aeruginosa ATCC 27853 [6] = assay: Broth microdilution MIC/MBC; type: cell-based, Pseudomonas aeruginosa; conditions: 24 h exposure; v/v; n = 3
Description: as §1, §2

[7] = tested on: Y. enterocolitica IP 864 O: 3; assay: Broth microdilution MIC/MBC; type: cell-based, Yersinia enterocolitica; conditions: 24 h exposure; v/v; n = 3
Description: as §1, §2

[8] = tested on: Candida Albicans SAIMC 562; assay: Broth microdilution MIC/MBC; type: cell-based; conditions: 24 h exposure; v/v; n = 3
Description: as §1, with “The antimycotic activity was tested on Candida albicans (CBS 562, Utrecht, The Netherlands).” left out
as §2

S. epidermidis = tested on: S. epidermidis; parameters: method as in doi:10.5580/b43; conditions: in the presence of 6% solvent; cited from earlier work
[9] = no reference given; cited from earlier work
S. Aureus ATCC 29213 [10] = assay: Dehydrogenase activity (DEHA) MTT test after BMD; type: cell-based, Staphylococcus aureus; conditions: 24 h exposure; % against untreated control; ± SD; n = 3
Experimental: (§3) The cell dehydrogenase (DEHA, redox, metabolic) activity of all samples was measured at the end of the BMD assay, based on reducing the MTT dye to formazan by the membrane located bacterial enzyme NADH: ubiquinone reductase (H^+-translocation). The protocol of Wang et al. was applied after minor modifications. Briefly, each sample was incubated for 120 min at 37 °C with MTT at a final concentration of 0.5 mg/mL in the culture medium. The resulting non-soluble violet formazan crystals were dissolved with an equal volume of 2-propanol supplemented with 5% formic acid. The absorbance was measured at 550 nm against a blank solution containing the respective volumes of MHB and MTT.
(§4) The cell viability is presented as a percentage of the untreated control. At least four wells were seeded for every concentration. Three independent assays were performed (n = 3). […] The respiratory activity of the bacterial cultures was calculated as a percentage against the untreated control.

S. pyogenes SAIMC 10535 [11] = assay: Dehydrogenase activity (DEHA) MTT test after BMD; type: cell-based, Streptococcus pyogenes; conditions: 24 h exposure; % against untreated control; ± SD; n = 3
Experimental: as §3, §4

[12] = tested on: Y. enterocolitica IP 864 O: 3; assay: Dehydrogenase activity (DEHA) MTT test after BMD; type: cell-based, Yersinia enterocolitica; conditions: 24 h exposure; % against untreated control; ± SD; n = 3
Experimental: as §3
The IC50 values from the MTT assay were evaluated with a non-linear regression analysis (Curve fit, GraphPad Prizm 6.01 software, GraphPad Software Inc., San Diego, CA, USA) using sigmoidal concentration–response curves. The cell viability is presented as a percentage of the untreated control. At least four wells were seeded for every concentration. Three independent assays were performed (n = 3). The maximum tolerated concentration (MTC) for the cell lines was determined from three independent assays according to ISO 10993-5 as the maximum concentration at which at least 70% of the cells were viable (nonlin fit, range, GraphPad Prizm 6.01 software) GraphPad Software Inc., San Diego, CA, USA). To compare the MTC values of the solvents for each cell line, the ordinary One-way ANOVA statistical analysis based on Tukey’s multiple comparisons test with a single pooled variance (GraphPad Prizm 6.01 software) GraphPad Software Inc., San Diego, CA, USA) was utilized, and p ≤ 0.05 was set as a significance level. The respiratory activity of the bacterial cultures was calculated as a percentage against the untreated control.

[13] = tested on: Candida Albicans SAIMC 562; assay: Dehydrogenase activity (DEHA) MTT test after BMD; type: cell-based; conditions: 24 h exposure; % active cells against untreated control; ± SD; n = 3
Experimental: as §3
(§5) The IC50 values from the MTT assay were evaluated with a non-linear regression analysis (Curve fit, GraphPad Prizm 6.01 software, GraphPad Software Inc., San Diego, CA, USA) using sigmoidal concentration–response curves. The cell viability is presented as a percentage of the untreated control. […] The maximum tolerated concentration (MTC) for the cell lines was determined from three independent assays according to ISO 10993-5 as the maximum concentration at which at least 70% of the cells were viable (nonlin fit, range, GraphPad Prizm 6.01 software) GraphPad Software Inc., San Diego, CA, USA). […] The respiratory activity of the bacterial cultures was calculated as a percentage against the untreated control.

E. faecalis ATCC 29212 [14] = assay: Dehydrogenase activity (DEHA) MTT test after BMD; type: cell-based, Enterococcus faecalis; conditions: 24 h exposure; % against untreated control; ± SD; n = 3
Experimental: as §3, §4

E. coli ATCC 35218 [15] = assay: Dehydrogenase activity (DEHA) MTT test after BMD; type: cell-based, Escherichia coli; conditions: in MHB; 24 h exposure; % against untreated control; ± SD; n = 3
Experimental: as §3, §5

P. aeruginosa ATCC 27853 [16] = assay: Dehydrogenase activity (DEHA) MTT test after BMD; type: cell-based, Pseudomonas aeruginosa; conditions: 24 h exposure; % against untreated control; ± SD; n = 3
Experimental: as §3, §4

[17] = tested on: Chinese hamster liver cell line; conditions: cited from earlier work
[18] = tested on: breast cancer, mouse macrophage and human umbilical vein endothelial cells; parameters: method as in doi:10.17795/ajmb-33453; conditions: cited from earlier work

Compound	MBC (S. Aureus ATCC 29213 [1]) [%]	MIC (S. Aureus ATCC 29213 [1]) [%]	MBC [2] [%]	MIC [2] [%]	MBC (S. pyogenes SAIMC 10535 [3]) [%]	MIC (S. pyogenes SAIMC 10535 [3]) [%]	MBC (E. faecalis ATCC 29212 [4]) [%]	MIC (E. faecalis ATCC 29212 [4]) [%]	MBC (E. coli ATCC 35218 [5]; in LBB) [%]	MIC (E. coli ATCC 35218 [5]; in LBB) [%]	MBC (E. coli ATCC 35218 [5]; in MHB) [%]	MIC (E. coli ATCC 35218 [5]; in MHB) [%]	MBC (P. aeruginosa ATCC 27853 [6]) [%]	MIC (P. aeruginosa ATCC 27853 [6]) [%]	MBC [7] [%]	MIC [7] [%]	MBC [8] [%]	MIC [8] [%]	Experimental logP [9]	DEHA (dehydrogenase activity) (S. Aureus ATCC 29213 [10]) [%]	also measured
CO [MeOH, methanol]	>25	>25	>25	>25	>25	>25	>25	>25	>25	>25	>25	>25	>25	>25	>25	>25	>25	>25	−0.77	–	survival (S. epidermidis): 26%
COCCOC [DME, 1,2-dimethoxyethane]	12.5	6.25	3.125	3.125	>25	6.25	12.5	12.5	6.25	3.125	12.5	12.5	12.5	12.5	6.25	3.125	25	12.5	−0.21	12.54 ± 0.03	DEHA (dehydrogenase activity) (S. pyogenes SAIMC 10535 [11]): 31.32 ± 0.05%; DEHA (dehydrogenase activity) [12]: 49.04 ± 0.005%; DEHA (dehydrogenase activity) [13]: 31.23% and 31.23 ± 0.01%
COCCO [MEtOH, 2-methoxyethanol]	>25	25	25	25	>25	12.5	>25	12.5	12.5	12.5	25	12.5	25	6.25	25	12.5	12.5	6.25	−0.77	10.27 ± 0.01	DEHA (dehydrogenase activity) (S. pyogenes SAIMC 10535 [11]): 28.02 ± 0.02%; DEHA (dehydrogenase activity) (E. faecalis ATCC 29212 [14]): 25.60 ± 0.04%; DEHA (dehydrogenase activity) (E. coli ATCC 35218 [15]): 5.86 ± 0.005%; DEHA (dehydrogenase activity) (P. aeruginosa ATCC 27853 [16]): 20.23 ± 0.06%; DEHA (dehydrogenase activity) [12]: 11.76 ± 0.004%; DEHA (dehydrogenase activity) [13]: 77.41 ± 0.03%
PEG-200	–	–	–	–	–	–	–	–	–	–	–	–	–	–	–	–	–	–	–	–	clastogenic concentrations [17]: 5 to 7 mM
CC(C)=O [acetone]	–	–	–	–	–	–	–	–	–	–	–	–	–	–	–	–	–	–	–	–	maximum tolerated concentration (MTC) / applicable concentration [18]: up to 0.5 % v/v
